Results on 14 molecules are retold here after patent publication US3940441A (priority 1974, dated 1976).

Converted amounts (≈) assume the structure as drawn. Like-named read-outs stand apart in the source and are kept apart here.

One assay relates to Clostridium welchii. Briefly: microbe, parasite or virus in culture. The format is cell-based.
A further assay deals with Staphylococcus aureus. As to the kind of experiment: microbe, parasite or virus in culture. It is filed as cell-based. The settings on record: for MBC / MIC: Staphylococcus aureus; for MBC: read-out: Minimum Effective Concentration, Bactericidal.
In another assay the test system is Eberthella typhi. As to the kind of experiment: microbe, parasite or virus in culture. The format is cell-based. The settings on record: for MBC: read-out: Minimum Effective Concentration, Bactericidal; for MIC: read-out: Minimum Effective Concentration, Bacteriostatic.
For a further assay, the system named is Pseudomonas aeruginosa. As to the kind of experiment: microbe, parasite or virus in culture. It is filed as cell-based. The settings on record: for MBC / MIC: Pseudomonas aeruginosa; for MBC: read-out: Minimum Effective Concentration, Bactericidal.
The test system of the next assay is Streptococcus sp. As to the kind of experiment: microbe, parasite or virus in culture. The format is cell-based. The settings on record: for MBC / MIC: Streptococcus; for MBC: read-out: Minimum Effective Concentration, Bactericidal; for MIC: read-out: Minimum Effective Concentration, Bacteriostatic.
Another assay has as its system Proteus vulgaris. As to the kind of experiment: microbe, parasite or virus in culture. It is filed as cell-based. The settings on record: read-out: Minimum Inhibitory Concentration.
For the next assay, the system named is Escherichia coli. Briefly: microbe, parasite or virus in culture. The format is cell-based. The settings on record: read-out: Minimum Inhibitory Concentration.
Another assay concerns Endamoeba criceti. Briefly: chemotherapeutic evaluation in vivo in hamsters infected with Endamoeba criceti (amebacidal activity). On the set-up: species or system hamster. The settings on record: oral.
Setting [1] is: Clostridium, read-out: Minimum Effective Concentration, Bactericidal.
Setting [2] is: Clostridium, read-out: Minimum Effective Concentration, Bacteriostatic.
[3] abbreviates: read-out: Minimum Effective Concentration, Bacteriostatic.
Where [4] appears, read: read-out: Minimum Inhibitory Concentration.

For the molecule `O=[N+]([O-])c1ccc(Oc2ccc(CNCCCCCCCCNCc3ccc(Oc4ccc([N+](=O)[O-])cc4)cc3)cc2)cc1` [Example 6A, N,N'-bis[4-(4'-nitrophenoxy)benzyl]-1,8-octanediamine], the MBC came to 75 µg/mL (≈ 125 µM) in the assay with Clostridium welchii (setting [1]), 5 µg/mL (≈ 8.35 µM) in the assay on Staphylococcus aureus, 25 µg/mL (≈ 41.8 µM) with Eberthella typhi and 1000 µg/mL (≈ 1670 µM) in the assay with Pseudomonas aeruginosa. Besides, the MIC came to 50 µg/mL (≈ 83.5 µM) in the assay on Clostridium welchii (setting [2]), 0.5 µg/mL (≈ 0.835 µM) in the assay with Staphylococcus aureus (setting [3]), 7.5 µg/mL (≈ 12.5 µM) with Eberthella typhi and 750 µg/mL (≈ 1250 µM) with Pseudomonas aeruginosa (setting [3]).

In the case of `O=[N+]([O-])c1ccc(Oc2ccc(CNCCNCc3ccc(Oc4ccc([N+](=O)[O-])cc4)cc3)cc2)cc1` [Example 8, N,N'-bis[4-(4'-nitrophenoxy)benzyl]-1,2-ethanediamine], the MBC in the assay with Clostridium welchii (setting [1]) is 1 µg/mL (≈ 1.94 µM); in the assay on Staphylococcus aureus it was 50 µg/mL (≈ 97.2 µM); with Eberthella typhi, over 100 µg/mL; in the assay on Pseudomonas aeruginosa it was over 100 µg/mL. Besides, the MIC was 0.5 µg/mL (≈ 0.972 µM) with Clostridium welchii (setting [2]), 10 µg/mL (≈ 19.4 µM) in the assay on Staphylococcus aureus (setting [3]), 75 µg/mL (≈ 146 µM) with Eberthella typhi and 75 µg/mL (≈ 146 µM) with Pseudomonas aeruginosa (setting [3]).

As to `O=[N+]([O-])c1ccc(Oc2ccc(CNCCCCCCNCc3ccc(Oc4ccc([N+](=O)[O-])cc4)cc3)cc2)cc1` [Example 7, N,N'-bis[4-(4'-nitrophenoxy)benzyl]-1,6-hexanediamine], the MBC is 25 µg/mL (≈ 43.8 µM) in the assay on Clostridium welchii (setting [1]), 7.5 µg/mL (≈ 13.1 µM) in the assay on Staphylococcus aureus, 50 µg/mL (≈ 87.6 µM) in the assay with Eberthella typhi and 500 µg/mL (≈ 876 µM) in the assay with Pseudomonas aeruginosa. Also, the MIC was 25 µg/mL (≈ 43.8 µM) in the assay with Clostridium welchii (setting [2]), 1 µg/mL (≈ 1.75 µM) with Staphylococcus aureus (setting [3]), 7.5 µg/mL (≈ 13.1 µM) with Eberthella typhi and 250 µg/mL (≈ 438 µM) in the assay on Pseudomonas aeruginosa (setting [3]).

As to `Nc1ccc(Oc2ccc(CNCCCCCCCCNCc3ccc(Oc4ccc(N)cc4)cc3)cc2)cc1` [Example 14A, N,N'-bis[4-(4'-aminophenoxy)benzyl]-1,8-octanediamine], the MBC was determined as 100 µg/mL (≈ 186 µM) in the assay on Clostridium welchii (Clostridium; read-out: Minimum Effective Concentration, Bactericidal); 25 µg/mL (≈ 46.4 µM) in the assay with Staphylococcus aureus; 75 µg/mL (≈ 139 µM) with Eberthella typhi; 50 µg/mL (≈ 92.8 µM) in the assay on Streptococcus sp.; 1000 µg/mL (≈ 1860 µM) with Pseudomonas aeruginosa. Besides, the MIC with Clostridium welchii (Clostridium; read-out: Minimum Effective Concentration, Bacteriostatic) was determined as 100 µg/mL (≈ 186 µM); in the assay with Staphylococcus aureus (setting [3]), 7.5 µg/mL (≈ 13.9 µM); with Eberthella typhi, 50 µg/mL (≈ 92.8 µM); with Streptococcus sp. it was 25 µg/mL (≈ 46.4 µM); in the assay on Pseudomonas aeruginosa (setting [3]), 750 µg/mL (≈ 1390 µM).

As for `O=[N+]([O-])c1ccc(Oc2ccc(CNC[C@H]3CC[C@H](CNCc4ccc(Oc5ccc([N+](=O)[O-])cc5)cc4)CC3)cc2)cc1` [Example 10A, Trans-1,4-bis[4-(4'-nitrophenoxy)benzylaminomethyl]cyclohexane], the MBC with Clostridium welchii (setting [1]) was found to be 100 µg/mL (≈ 168 µM); with Staphylococcus aureus, 50 µg/mL (≈ 83.8 µM); in the assay with Eberthella typhi it was 75 µg/mL (≈ 126 µM); in the assay with Streptococcus sp., 25 µg/mL (≈ 41.9 µM). Also, the MIC in the assay on Clostridium welchii (setting [2]) was 100 µg/mL (≈ 168 µM); in the assay with Staphylococcus aureus (setting [3]), 10 µg/mL (≈ 16.8 µM); with Eberthella typhi, 50 µg/mL (≈ 83.8 µM); in the assay with Streptococcus sp. it was 25 µg/mL (≈ 41.9 µM).

In the case of `O=C(Nc1ccccc1)N(CCCCCCN(Cc1ccc(Oc2ccc([N+](=O)[O-])cc2)cc1)C(=O)Nc1ccccc1)Cc1ccc(Oc2ccc([N+](=O)[O-])cc2)cc1` [Example 12A, N,N'-bis[4-(4'-nitrophenoxy)benzyl]-N,N'-bis(phenylcarbamyl)-1,6-hexanediamine], the MBC in the assay on Clostridium welchii (setting [1]) is 100 µg/mL (≈ 124 µM); with Staphylococcus aureus, 75 µg/mL (≈ 92.7 µM); in the assay with Eberthella typhi, over 100 µg/mL; in the assay on Pseudomonas aeruginosa it was over 100 µg/mL. Moreover, the MIC with Clostridium welchii (setting [2]), in the assay with Staphylococcus aureus (setting [3]), in the assay with Eberthella typhi and in the assay on Pseudomonas aeruginosa (setting [3]) was 75 µg/mL (≈ 92.7 µM) in each case.

Consider `CN(CCCCCCN(C)Cc1ccc(Oc2ccc([N+](=O)[O-])cc2)cc1)Cc1ccc(Oc2ccc([N+](=O)[O-])cc2)cc1` [Example 11A, N,N'-Dimethyl-N,N'-bis[4-(4'-nitrophenoxy)-benzyl]-1,6-hexanediamine], for which the MBC turned out to be 500 µg/mL (≈ 835 µM) in the assay with Clostridium welchii (setting [1]), 250 µg/mL (≈ 418 µM) in the assay with Staphylococcus aureus, 750 µg/mL (≈ 1250 µM) in the assay with Eberthella typhi and 5 µg/mL (≈ 8.35 µM) in the assay on Streptococcus sp.. Moreover, the MIC in the assay on Clostridium welchii (setting [2]) came to 250 µg/mL (≈ 418 µM); with Staphylococcus aureus (setting [3]), 5 µg/mL (≈ 8.35 µM); with Eberthella typhi, 500 µg/mL (≈ 835 µM); in the assay on Streptococcus sp., 5 µg/mL (≈ 8.35 µM).

In the case of `O=C(C(Cl)Cl)N(CCN(Cc1ccc(Oc2ccc([N+](=O)[O-])cc2)cc1)C(=O)C(Cl)Cl)Cc1ccc(Oc2ccc([N+](=O)[O-])cc2)cc1` [Example 13A, N,N'-bis(dichloroacetyl)-N,N'-bis[4-(4'-nitrophenoxy)benzyl]-1,2-ethanediamine], the MBC with Clostridium welchii (setting [1]) was over 1000 µg/mL; with Staphylococcus aureus, over 1000 µg/mL; in the assay on Eberthella typhi, 750 µg/mL (≈ 1020 µM); in the assay on Pseudomonas aeruginosa, 750 µg/mL (≈ 1020 µM). Besides, the MIC in the assay on Clostridium welchii (setting [2]), in the assay with Staphylococcus aureus (setting [3]), in the assay on Eberthella typhi and in the assay on Pseudomonas aeruginosa (setting [3]) was 750 µg/mL (≈ 1020 µM) each time.

As to “2,2'-Dimethylbis{2-[4-(4'-nitrophenoxy)benzylamino]-ethyl}amine and 1,2'-Dimethylbis{2-[4-(4'-nitrophenoxy)benzylamino]ethyl}amine (Mixture of Isomers) [Example 9A]”, the “Minimum Effective Concentration, Bactericidal” value was 0.005 mg./cc with Clostridium welchii; 0.025 mg./cc with Staphylococcus aureus; 0.25 mg./cc in the assay with Eberthella typhi; 0.01 mg./cc with Streptococcus sp.; over 1.0 mg./cc in the assay with Pseudomonas aeruginosa. For the same molecule, the “Minimum Effective Concentration, Bacteriostatic” value with Clostridium welchii is reported as 0.001 mg./cc; in the assay with Staphylococcus aureus, 0.005 mg./cc; in the assay with Eberthella typhi it was 0.1 mg./cc; with Streptococcus sp., 0.0075 mg./cc; in the assay on Pseudomonas aeruginosa it was 0.5 mg./cc.

Consider `O=[N+]([O-])c1ccc(Oc2ccc(CNCCCNCCCNCc3ccc(Oc4ccc([N+](=O)[O-])cc4)cc3)cc2)cc1` [Example 9B, Bis{3-[4-(4'-nitrophenoxy)benzylamino]propyl}amine], for which the MIC in the assay with Staphylococcus aureus (setting [4]) stood at 0.05 µg/mL (≈ 0.0854 µM); with Proteus vulgaris, 125 µg/mL (≈ 213 µM); in the assay with Pseudomonas aeruginosa (setting [4]), 3.1 µg/mL (≈ 5.29 µM); with Escherichia coli it was 0.2 µg/mL (≈ 0.341 µM).

In the case of `O=[N+]([O-])c1ccc(Oc2ccc(C=NCCCCCCN=Cc3ccc(Oc4ccc([N+](=O)[O-])cc4)cc3)cc2)cc1` [Example 1A, N,N'-bis[4-(4'-nitrophenoxy)benzal]-1,6-hexanediamine], the “animals cleared of amebic infection” value was 4 out of 10 in the assay on Endamoeba criceti (25 mg./kg./day), 6 out of 10 with Endamoeba criceti (50 mg./kg./day) and 3 out of 5 in the assay with Endamoeba criceti (100 mg./kg./day).

With `Cc1c(C)c(CCNCc2ccc(Oc3ccc([N+](=O)[O-])cc3)cc2)c(C)c(C)c1CCNCc1ccc(Oc2ccc([N+](=O)[O-])cc2)cc1` [Example 16A, Bis{2-[4-(4'-nitrophenoxy)benzylamino]ethyl}-2,3,5,6-tetramethylbenzene], the MBC in the assay on Clostridium welchii (setting [1]) was 250 µg/mL (≈ 370 µM); in the assay on Staphylococcus aureus, 75 µg/mL (≈ 111 µM); in the assay on Eberthella typhi it was 750 µg/mL (≈ 1110 µM); in the assay on Streptococcus sp. it was 25 µg/mL (≈ 37 µM). For the same molecule, the MIC in the assay with Clostridium welchii (setting [2]) came to 100 µg/mL (≈ 148 µM); with Staphylococcus aureus (setting [3]), 7.5 µg/mL (≈ 11.1 µM); in the assay on Eberthella typhi, 100 µg/mL (≈ 148 µM); in the assay with Streptococcus sp., 2.5 µg/mL (≈ 3.7 µM).

Regarding `O=[N+]([O-])c1ccc(Oc2ccc(C=NCCN=Cc3ccc(Oc4ccc([N+](=O)[O-])cc4)cc3)cc2)cc1` [Example 3, N,N'-bis[4-(4'-nitrophenoxy)benzal]-1,2-ethanediamine], the “animals cleared of amebic infection” value in the assay on Endamoeba criceti (100 mg./kg./day) is reported as 2 out of 5.

`O=[N+]([O-])c1ccc(Oc2ccc(C=NCCCCCCCCN=Cc3ccc(Oc4ccc([N+](=O)[O-])cc4)cc3)cc2)cc1` [Example 2, N,N'-bis[4-(4'-nitrophenoxy)benzal]-1,8-octanediamine]: the “animals cleared of amebic infection” value was 1 out of 5 with Endamoeba criceti (12.5 mg./kg./day), 2 out of 5 in the assay with Endamoeba criceti (25 mg./kg./day) and 2 out of 5 in the assay with Endamoeba criceti (50 mg./kg./day).
